According to US11576913B2 (priority 2018, dated 2023):

System: subjects suffering from the Insomnia Disorder adult insomnia
Test: Polysomnography crossover study of sleep parameters (SE, TST, WASO, LPS, Stage N2)
Assay type: in vivo, human
Conditions: for Latency to Persistent Sleep (LPS) Least Squares Means (STDE) / Sleep Efficiency (SE) Least Squares Means (STDE) / Time Spent in Sleep Stage N2 Least Squares Means (STDE) / Total Sleep Time (TST) Least Squares Means (STDE) / Wake after Sleep Onset (WASO) Least Squares Means (STDE): average of Night 1 and Night 2, full analysis population; for WASO, decrease in the difference of LSMs: stated as decrease
Experimental: The study randomized up to about 30 subjects to achieve at least about 24 completers (i.e., subjects who completed all 5 Dosing Periods). The subjects included otherwise healthy males and females aged 18 to 64 years, inclusive, with a history of adult insomnia (insomnia disorder as defined by DSM-5 criteria) and who otherwise had no significant medical or psychiatric history.
Compound (1C) was administered orally in an immediate release tablet comprising the pharmaceutically acceptable excipients croscarmellose sodium (FMC Health and Nutrition, Philadelphia, Pa.), hydroxypropylcellulose (Ashland Inc., Covington, Ky.), microcrystalline cellulose (Sigma-Aldrich, St. Louis, Mo.), and mannitol (SPI Pharma, Wilmington, Del.). […] Placebo tablets matching the Compound (1C) tablets were orally administered in the same way. The placebo tablets comprised the four above-described pharmaceutically acceptable excipients but with no Compound (1C).
During a baseline visit (Days −7 to −6), successful subjects arrived at a clinical unit in the afternoon or evening of Day −7. At that time, they began a stay of two consecutive nights during which each subject underwent continuous PSG recording for eight hours on the first night (Night 1) to assess eligibility criteria and to screen out subjects with sleep apnea or periodic limb movements with arousal. Still-successful subjects underwent another eight hours of continuous PSG recording on the second night (Night 2), which determined if a subject met the sleep-eligibility criteria based on the average of data obtained on Nights 1 and 2 of the baseline visit. During the baseline visit, subjects also practiced and took a post-sleep test used in this study, i.e., the digit symbol substitution test (“DSST”), and familiarized themselves with the Karolinska Sleepiness Scale (“KSS”) evaluation form. To assess a subject's perception of the “quality” and “quantity” of sleep, a post-sleep questionnaire was used to ask questions such as “how many minutes did it take you to fall asleep last night after you got into bed and the lights were turned off?”, “how many times did you awaken during the night?”, and “on a scale from 1 to 10, with 1 being poor and 10 being excellent, how would you rate the quality of your sleep last night?”. Subjects who met all eligibility criteria after the baseline visit returned approximately seven days later to enter the treatment period (Dosing Periods 1-5).
A summary of the PSG recording procedure that was used is as follows. Standard placements for EEG electrodes were derived according to the international 10-20 system (see, e.g., Jasper, “The ten-twenty electrode system of the international federation,” Electroencephalography Clin. Neurophys. 10:371-375 (1958)) with the exception of the change of the A1-A2 labels to M1-M2, pursuant to the AASM Manual for Scoring of Sleep (Berry et al., “The AASM Manual for the Scoring of Sleep and Associated Events: Rules, Terminology and Technical Specifications,” Version 2.0.3, American Academy of Sleep Medicine, Darien, Ill., (2014)). This system requires that electrodes be positioned in measured relationships to landmark anatomical points. Standard placements for EOG, submental EMG electrodes, anterior tibialis EMG electrodes, and airflow sensors were consistent with the AASM Manual for Scoring of Sleep.
(2) The 27-day treatment period included five dosing periods (Dosing Periods 1-5) that were at least 5 days apart. Once continued eligibility was confirmed, subjects were randomized as to treatment upon check-in on Day 1. […] The time subjects spent in bed in an undisturbed environment was fixed at 8 hours (i.e., 960 PSG epochs of 30 seconds duration per epoch).
Following the evening-time dosing with study drug, subjects underwent eight hours of continuous PSG recording. […]

[1] = all treatment groups (0.5, 1.0, 3.0, 6.0 mg)

O=C(O)c1nc2ccccc2n([C@H]2C[C@H]3CCC[C@@H](C2)N3C2CC3CCCC(C3)C2)c1=O (stereo partly shown) [Compound (1C)]
Latency to Persistent Sleep (LPS) Least Squares Means (STDE) (0.5 mg oral): −25.9 (2.78) min | Sleep Efficiency (SE) Least Squares Means (STDE) (0.5 mg oral): 12.1 (1.02) % | Time Spent in Sleep Stage N2 Least Squares Means (STDE) (0.5 mg oral): 57.1 (5.53) min | Total Sleep Time (TST) Least Squares Means (STDE) (0.5 mg oral): 57.9 (4.88) min | Wake after Sleep Onset (WASO) Least Squares Means (STDE) (0.5 mg oral): −37.1 (4.54) min | Latency to Persistent Sleep (LPS) Difference of Least Squares Means vs. Placebo (0.5 mg vs. Placebo): 2.6 min | Sleep Efficiency (SE) Difference of Least Squares Means vs. Placebo (0.5 mg vs. Placebo): 4.1% | Time Spent in Sleep Stage N2 Difference of Least Squares Means vs. Placebo (0.5 mg vs. Placebo): 33.6 min | Total Sleep Time (TST) Difference of Least Squares Means vs. Placebo (0.5 mg vs. Placebo): 19.8 min | Wake after Sleep Onset (WASO) Difference of Least Squares Means vs. Placebo (0.5 mg vs. Placebo): -24.3 min | WASO, decrease in the difference of LSMs (0.5 mg vs. placebo): 24.3 min | Latency to Persistent Sleep (LPS) Least Squares Means (STDE) (1.0 mg oral): −29.9 (2.78) min | Sleep Efficiency (SE) Least Squares Means (STDE) (1.0 mg oral): 14.7 (1.02) % | Time Spent in Sleep Stage N2 Least Squares Means (STDE) (1.0 mg oral): 69.2 (5.53) min | Total Sleep Time (TST) Least Squares Means (STDE) (1.0 mg oral): 70.3 (4.88) min | Wake after Sleep Onset (WASO) Least Squares Means (STDE) (1.0 mg oral): −44.5 (4.54) min | Latency to Persistent Sleep (LPS) Difference of Least Squares Means vs. Placebo (1.0 mg vs. Placebo): -1.4 min | Sleep Efficiency (SE) Difference of Least Squares Means vs. Placebo (1.0 mg vs. Placebo): 6.7% | Time Spent in Sleep Stage N2 Difference of Least Squares Means vs. Placebo (1.0 mg vs. Placebo): 45.7 min | Total Sleep Time (TST) Difference of Least Squares Means vs. Placebo (1.0 mg vs. Placebo): 32.3 min | Wake after Sleep Onset (WASO) Difference of Least Squares Means vs. Placebo (1.0 mg vs. Placebo): -31.8 min | WASO, decrease in the difference of LSMs (1.0 mg vs. placebo): 31.8 min | Latency to Persistent Sleep (LPS) Least Squares Means (STDE) (3.0 mg oral): −29.0 (2.82) min | Sleep Efficiency (SE) Least Squares Means (STDE) (3.0 mg oral): 17.6 (1.03) % | Time Spent in Sleep Stage N2 Least Squares Means (STDE) (3.0 mg oral): 132.1 (5.6) min | Total Sleep Time (TST) Least Squares Means (STDE) (3.0 mg oral): 84.5 (4.96) min | Wake after Sleep Onset (WASO) Least Squares Means (STDE) (3.0 mg oral): −59.1 (4.60) min | Latency to Persistent Sleep (LPS) Difference of Least Squares Means vs. Placebo (3.0 mg vs. Placebo): -0.5 min | Sleep Efficiency (SE) Difference of Least Squares Means vs. Placebo (3.0 mg vs. Placebo): 9.7% | Time Spent in Sleep Stage N2 Difference of Least Squares Means vs. Placebo (3.0 mg vs. Placebo): 108.5 min | Total Sleep Time (TST) Difference of Least Squares Means vs. Placebo (3.0 mg vs. Placebo): 46.4 min | Wake after Sleep Onset (WASO) Difference of Least Squares Means vs. Placebo (3.0 mg vs. Placebo): -46.4 min | WASO, decrease in the difference of LSMs (3.0 mg vs. placebo): 46.4 min | Latency to Persistent Sleep (LPS) Least Squares Means (STDE) (6.0 mg oral): −31.7 (2.78) min | Sleep Efficiency (SE) Least Squares Means (STDE) (6.0 mg oral): 19.0 (1.02) % | Time Spent in Sleep Stage N2 Least Squares Means (STDE) (6.0 mg oral): 146.3 (5.5) min | Total Sleep Time (TST) Least Squares Means (STDE) (6.0 mg oral): 91.0 (4.88) min | Wake after Sleep Onset (WASO) Least Squares Means (STDE) (6.0 mg oral): −63.5 (4.54) min | Latency to Persistent Sleep (LPS) Difference of Least Squares Means vs. Placebo (6.0 mg vs. Placebo): -3.2 min | Sleep Efficiency (SE) Difference of Least Squares Means vs. Placebo (6.0 mg vs. Placebo): 11.0% | Time Spent in Sleep Stage N2 Difference of Least Squares Means vs. Placebo (6.0 mg vs. Placebo): 122.8 min | Total Sleep Time (TST) Difference of Least Squares Means vs. Placebo (6.0 mg vs. Placebo): 52.9 min | Wake after Sleep Onset (WASO) Difference of Least Squares Means vs. Placebo (6.0 mg vs. Placebo): -50.8 min | WASO, decrease in the difference of LSMs (6.0 mg vs. placebo): 50.8 min | Sleep Efficiency vs placebo [1]: significantly increased | Total Sleep Time vs placebo [1]: significantly increased | Wake after Sleep Onset vs placebo [1]: significantly decreased | amount of time spent in sleep Stage N2 vs placebo [1]: significantly increased | Latency to Persistent Sleep vs placebo (any of the treatment groups (0.5, 1.0, 3.0, 6.0 mg)): not significantly different
